What all share (conditions): Homo sapiens
Test [1] relates to HeLa. Description: Antitumor activity against HeLa cells at 10 uM by MTT assay. Format: functional. Background: Tetrazolium assays rely on reduction of a dye to a coloured formazan, in cell work by metabolically active cells.
Test [2] relates to HeLa. The experiment in a line: Antitumor activity against HeLa cells at 0.1 uM by MTT assay. Format: functional.
Test [3] has as its system HeLa. The experiment in a line: Antitumor activity against HeLa cells at 10 nM by MTT assay. Type of test: functional.
The test system of test [4] is HeLa. Description: Antitumor activity against HeLa cells at 1 uM by MTT assay. Type of test: functional.
The subject of test [5] is HeLa. Description: Antitumor activity against HeLa cells by MTT assay. Format: functional, cell-based.

The values below come from ChEMBL document CHEMBL1146255, “Synthesis of bisdesmosidic kryptogenyl saponins using the 'random glycosylation' strategy and evaluation of their antitumor activity” (Bioorg Med Chem Lett, 2007).

The term inhibition denotes the percentage by which the read-out fell short of the control. Read a high inhibition as a strong effect. Usually IC50 stands for the concentration that gives 50% inhibition. A high value points to lower potency.

In the test with HeLa [1], `CC(=O)OC[C@H](C)CCC(=O)[C@@H](C)[C@H]1C(=O)C[C@H]2[C@@H]3CC=C4CC(OC(=O)c5ccccc5)CC[C@]4(C)[C@H]3CC[C@]12C` (stereo not given in full) came in with an inhibition at 10 µM of 18.5%. Moreover, in the test with HeLa [2], the inhibition at 0.1 µM was 12.1%. Moreover, the inhibition at 0.01 µM in the test with HeLa [3] was found to be 8.33%. The molecule also registered an inhibition at 1 µM in the test with HeLa [4] of 11%. Besides, in the test on HeLa [5], the 50% inhibitory concentration (IC50) was greater than 10 µM.

As to `C[C@H](CCC(=O)[C@@H](C)[C@H]1C(=O)C[C@H]2[C@@H]3CC=C4C[C@@H](O[C@@H]5OC[C@H](O)[C@H](O)[C@H]5O)CC[C@]4(C)[C@H]3CC[C@]12C)CO[C@@H]1OC[C@H](O)[C@H](O)[C@H]1O`, the inhibition at 10 µM with HeLa [1] was 62%. In the test with HeLa [2], this molecule returned an inhibition at 0.1 µM of 1.64%. In the test on HeLa [3], this molecule displayed an inhibition at 0.01 µM of 0.26%. Moreover, in the test with HeLa [4], the inhibition at 1 µM was found to be 4.34%. The molecule further showed an IC50 in the test with HeLa [5] of 4.25 µM.

As to `C[C@H](CCC(=O)[C@@H](C)[C@H]1C(=O)C[C@H]2[C@@H]3CC=C4C[C@@H](O[C@@H]5O[C@H](CO)[C@@H](O)[C@H](O)[C@H]5O)CC[C@]4(C)[C@H]3CC[C@]12C)CO[C@@H]1OC[C@H](O)[C@H](O)[C@H]1O`, the inhibition at 10 µM in the test on HeLa [1] was 4.36%. Moreover, the inhibition at 0.1 µM in the test with HeLa [2] is 1.05%. The molecule further registered an inhibition at 0.01 µM in the test on HeLa [3] of 0.87%. The same molecule displayed an inhibition at 1 µM with HeLa [4] of 3.67%. In the test on HeLa [5], this molecule came in with an IC50 greater than 10 µM.

For the molecule `C[C@H](CCC(=O)[C@@H](C)[C@H]1C(=O)C[C@H]2[C@@H]3CC=C4C[C@@H](O[C@@H]5O[C@H](CO)[C@@H](O)[C@H](O)[C@H]5O)CC[C@]4(C)[C@H]3CC[C@]12C)CO[C@@H]1O[C@@H](C)[C@H](O)[C@@H](O)[C@H]1O`, at 10 µM the inhibition with HeLa [1] was 10.5%. Further, 0.1 µM produced 7.16% inhibition in the test on HeLa [2]. The molecule also came in with an inhibition at 0.01 µM in the test on HeLa [3] of 3.42%. In the test with HeLa [4], this molecule displayed an inhibition at 1 µM of 9.94%. This molecule displayed an IC50 in the test on HeLa [5] greater than 10 µM.

In the test on HeLa [1], `C[C@@H](CO)CCC(=O)[C@@H](C)[C@H]1C(=O)C[C@H]2[C@@H]3CC=C4C[C@@H](O)CC[C@]4(C)[C@H]3CC[C@]12C` yielded an inhibition at 10 µM of 22.3%. The molecule further registered an inhibition at 0.1 µM in the test on HeLa [2] of 13.8%. The molecule further returned an inhibition at 0.01 µM in the test on HeLa [3] of 9.49%. Further, the inhibition at 1 µM in the test with HeLa [4] was 17.3%. The IC50 in the test with HeLa [5] is greater than 10 µM.

Molecule `C[C@H](CCC(=O)[C@@H](C)[C@H]1C(=O)C[C@H]2[C@@H]3CC=C4C[C@@H](O[C@@H]5O[C@@H](C)[C@H](O)[C@@H](O)[C@H]5O)CC[C@]4(C)[C@H]3CC[C@]12C)CO[C@@H]1O[C@@H](C)[C@H](O)[C@@H](O)[C@H]1O` gave an inhibition at 10 µM with HeLa [1] of 26.2%. The molecule further showed an inhibition at 0.1 µM in the test with HeLa [2] of 14.3%. The same molecule displayed an inhibition at 0.01 µM with HeLa [3] of 7.19%. Moreover, 1 µM produced 21.2% inhibition in the test with HeLa [4]. Moreover, the half-inhibitory concentration (IC50) in the test on HeLa [5] is greater than 10 µM.

`C[C@H](CCC(=O)[C@@H](C)[C@H]1C(=O)C[C@H]2[C@@H]3CC=C4C[C@@H](O[C@@H]5OC[C@@H](O)[C@H](O)[C@H]5O)CC[C@]4(C)[C@H]3CC[C@]12C)CO[C@@H]1OC[C@@H](O)[C@H](O)[C@H]1O` yielded an inhibition at 10 µM in the test with HeLa [1] of 17.6%. Besides, in the test with HeLa [2], the inhibition at 0.1 µM came to 14.2%. This molecule came in with an inhibition at 0.01 µM in the test on HeLa [3] of 6%. Further, the inhibition at 1 µM in the test on HeLa [4] was determined as 16.3%. The molecule further displayed an IC50 with HeLa [5] greater than 10 µM.

In the test on HeLa [1], `C[C@H](CCC(=O)[C@@H](C)[C@H]1C(=O)C[C@H]2[C@@H]3CC=C4C[C@@H](O[C@@H]5OC[C@@H](O)[C@H](O)[C@H]5O)CC[C@]4(C)[C@H]3CC[C@]12C)CO[C@@H]1OC[C@H](O)[C@H](O)[C@H]1O` displayed an inhibition at 10 µM of 30.9%. In the test with HeLa [2], this molecule came in with an inhibition at 0.1 µM of 5.45%. In addition, the inhibition at 0.01 µM with HeLa [3] stood at 0.68%. This molecule returned an inhibition at 1 µM in the test on HeLa [4] of 10.6%. The IC50 in the test with HeLa [5] is greater than 10 µM.

Regarding `C[C@H](CCC(=O)[C@@H](C)[C@H]1C(=O)C[C@H]2[C@@H]3CC=C4C[C@@H](O[C@@H]5O[C@H](CO)[C@@H](O)[C@H](O)[C@H]5O)CC[C@]4(C)[C@H]3CC[C@]12C)CO[C@@H]1OC[C@@H](O)[C@H](O)[C@H]1O`, in the test on HeLa [1], the inhibition at 10 µM turned out to be 24.8%. Further, the inhibition at 0.1 µM in the test on HeLa [2] came to 12.8%. The molecule further displayed an inhibition at 0.01 µM in the test with HeLa [3] of 7.95%. The same molecule returned an inhibition at 1 µM in the test on HeLa [4] of 14.5%. This molecule gave an IC50 in the test with HeLa [5] greater than 10 µM.

In the test with HeLa [1], `C[C@H](CCC(=O)[C@@H](C)[C@H]1C(=O)C[C@H]2[C@@H]3CC=C4C[C@@H](O[C@@H]5OC[C@@H](O)[C@H](O)[C@H]5O)CC[C@]4(C)[C@H]3CC[C@]12C)CO[C@@H]1O[C@H](CO)[C@@H](O)[C@H](O)[C@H]1O` showed an inhibition at 10 µM of 30.9%. This molecule also had an inhibition at 0.1 µM in the test with HeLa [2] of 19.3%. In the test with HeLa [3], this molecule displayed an inhibition at 0.01 µM of 17.5%. Besides, in the test on HeLa [4], the inhibition at 1 µM is 23%. The molecule also displayed an IC50 in the test on HeLa [5] greater than 10 µM.

In the test on HeLa [1], `C[C@H](CCC(=O)[C@@H](C)[C@H]1C(=O)C[C@H]2[C@@H]3CC=C4C[C@@H](O[C@@H]5OC[C@H](O)[C@H](O)[C@H]5O)CC[C@]4(C)[C@H]3CC[C@]12C)CO[C@@H]1O[C@@H](CO)[C@H](O)[C@@H](O)[C@@H]1O` displayed an inhibition at 10 µM of 9.71%. In the test on HeLa [2], this molecule came in with an inhibition at 0.1 µM of 3.84%. The inhibition at 0.01 µM with HeLa [3] was 3.25%. This molecule had an inhibition at 1 µM with HeLa [4] of 4.79%. The concentration for half-maximal inhibition (IC50) with HeLa [5] is greater than 10 µM.

The molecule `C[C@H](CCC(=O)[C@@H](C)[C@H]1C(=O)C[C@H]2[C@@H]3CC=C4C[C@@H](O[C@@H]5OC[C@H](O)[C@H](O)[C@H]5O)CC[C@]4(C)[C@H]3CC[C@]12C)CO[C@@H]1O[C@@H](C)[C@H](O)[C@@H](O)[C@H]1O` showed an inhibition at 10 µM in the test on HeLa [1] of 10.3%. Besides, at 0.1 µM the inhibition in the test on HeLa [2] was 7.51%. 0.01 µM produced 6.36% inhibition with HeLa [3]. The same molecule returned an inhibition at 1 µM in the test on HeLa [4] of 9.25%. This molecule also had a half-inhibitory concentration (IC50) in the test with HeLa [5] greater than 10 µM.

On to `C[C@H](CCC(=O)[C@@H](C)[C@H]1C(=O)C[C@H]2[C@@H]3CC=C4C[C@@H](O[C@@H]5O[C@@H](C)[C@H](O)[C@@H](O)[C@H]5O)CC[C@]4(C)[C@H]3CC[C@]12C)CO[C@@H]1OC[C@H](O)[C@H](O)[C@H]1O`, for which at 10 µM the inhibition in the test with HeLa [1] was 60.1%. The inhibition at 0.1 µM in the test with HeLa [2] turned out to be 6.93%. In addition, in the test with HeLa [3], the inhibition at 0.01 µM came out at 1.35%. This molecule also returned an inhibition at 1 µM in the test on HeLa [4] of 6.34%. Also, the IC50 in the test with HeLa [5] is 8.36 µM.

In the test on HeLa [1], `C[C@H](CCC(=O)[C@@H](C)[C@H]1C(=O)C[C@H]2[C@@H]3CC=C4C[C@@H](O[C@@H]5O[C@@H](C)[C@H](O)[C@@H](O)[C@H]5O)CC[C@]4(C)[C@H]3CC[C@]12C)CO[C@@H]1O[C@H](CO)[C@@H](O)[C@H](O)[C@H]1O` displayed an inhibition at 10 µM of 15.1%. The inhibition at 0.1 µM in the test with HeLa [2] is 1.66%. This molecule also returned an inhibition at 0.01 µM in the test on HeLa [3] of 0.16%. This molecule also showed an inhibition at 1 µM with HeLa [4] of 1.67%. The molecule further displayed an IC50 in the test with HeLa [5] greater than 10 µM.

Molecule `C[C@H](CCC(=O)[C@@H](C)[C@H]1C(=O)C[C@H]2[C@@H]3CC=C4C[C@@H](O[C@@H]5OC[C@H](O)[C@H](O)[C@H]5O)CC[C@]4(C)[C@H]3CC[C@]12C)CO[C@@H]1OC[C@@H](O)[C@H](O)[C@H]1O` yielded an inhibition at 10 µM with HeLa [1] of 11.8%. 0.1 µM produced 1.79% inhibition with HeLa [2]. Also, testing at 0.01 µM with HeLa [3] gave an inhibition of 0.98%. Also, in the test on HeLa [4], the inhibition at 1 µM turned out to be 2.84%. The same molecule showed an IC50 in the test on HeLa [5] greater than 10 µM.

The molecule `C[C@H](CCC(=O)[C@@H](C)[C@H]1C(=O)C[C@H]2[C@@H]3CC=C4C[C@@H](O[C@@H]5O[C@H](CO)[C@@H](O)[C@H](O)[C@H]5O)CC[C@]4(C)[C@H]3CC[C@]12C)CO[C@@H]1O[C@H](CO)[C@@H](O)[C@H](O)[C@H]1O` showed an inhibition at 10 µM in the test on HeLa [1] of 3.46%. Moreover, testing at 0.1 µM in the test on HeLa [2] gave an inhibition of 1.78%. The molecule also returned an inhibition at 0.01 µM with HeLa [3] of 0.46%. Also, the inhibition at 1 µM with HeLa [4] amounted to 2.31%. In addition, in the test on HeLa [5], the IC50 is greater than 10 µM.

For the molecule `C[C@H](CCC(=O)[C@@H](C)[C@H]1C(=O)C[C@H]2[C@@H]3CC=C4C[C@@H](O[C@@H]5O[C@@H](C)[C@H](O)[C@@H](O)[C@H]5O)CC[C@]4(C)[C@H]3CC[C@]12C)CO[C@@H]1OC[C@@H](O)[C@H](O)[C@H]1O`, in the test with HeLa [1], at 10 µM the inhibition was 28.5%. Also, in the test on HeLa [2], at 0.1 µM the inhibition was 20.1%. In the test on HeLa [3], the inhibition at 0.01 µM was determined as 13.6%. Also, in the test on HeLa [4], the inhibition at 1 µM turned out to be 20.7%. In the test with HeLa [5], this molecule gave a half-maximal inhibitory concentration (IC50) greater than 10 µM.
